Laboratory results taken from patent US10206394B2, “Herbicidal compounds” (Syngenta Participations AG, priority 2014, dated 2019).
Like-named read-outs stand apart in the source and are kept apart here.

Assays:
Assay in all cases: Glasshouse assay for herbicidal activity (pre- and post-emergence), percentage phytotoxicity
Assay type in all cases: in vivo
[1] = test system: Alopecurus myosuroides (ALOMY); conditions: Alopecurus myosuroides; for pest or weed control at 250 g/ha: visual assessment (100%=total damage, 0%=no damage)
Outline: (§1)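 Sow seed in standard soil in pots; apply test herbicide after 1 day (PRE) or about 12 days (POST). Grow on in the glasshouse, watering twice daily, cool-season species at 20/16 °C and warm-season at 24/18 °C. Score visible damage (0–100%) at 20 or 15 DAA respectively.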

Avena fatua (AVEFA) = conditions: Avena fatua; for pest or weed control at 250 g/ha: visual assessment (100%=total damage, 0%=no damage)
Outline: as §1

[2] = test system: Echinochloa crus-galli (ECHCG); conditions: Echinochloa crus-galli; for pest or weed control at 250 g/ha: visual assessment (100%=total damage, 0%=no damage)
Outline: as §1

Lolium perenne (LOLPE) = conditions: Lolium perenne; for pest or weed control at 250 g/ha: visual assessment (100%=total damage, 0%=no damage)
Outline: as §1

[3] = post-emergence, 360 h, post-emergence, 15 DAA, read-out: Post-emergence herbicidal activity (percentage phytotoxicity) ALOMY POST
[4] = pre-emergence, 480 h, pre-emergence, 20 DAA, read-out: Pre-emergence herbicidal activity (percentage phytotoxicity) ALOMY PRE
[5] = post-emergence, 360 h, post-emergence, 15 DAA, read-out: Post-emergence herbicidal activity (percentage phytotoxicity) AVEFA POST
[6] = pre-emergence, 480 h, pre-emergence, 20 DAA, read-out: Pre-emergence herbicidal activity (percentage phytotoxicity) AVEFA PRE
[7] = post-emergence, 360 h, post-emergence, 15 DAA, read-out: Post-emergence herbicidal activity (percentage phytotoxicity) ECHCG POST
[8] = pre-emergence, 480 h, pre-emergence, 20 DAA, read-out: Pre-emergence herbicidal activity (percentage phytotoxicity) ECHCG PRE
[9] = post-emergence, 360 h, post-emergence, 15 DAA, read-out: Post-emergence herbicidal activity (percentage phytotoxicity) LOLPE POST
[10] = pre-emergence, 480 h, pre-emergence, 20 DAA, read-out: Pre-emergence herbicidal activity (percentage phytotoxicity) LOLPE PRE

SMILES	pest or weed control at 250 g/ha [1, 3] [%]	pest or weed control at 250 g/ha [1, 4] [%]	pest or weed control at 250 g/ha (Avena fatua (AVEFA); [5]) [%]	pest or weed control at 250 g/ha (Avena fatua (AVEFA); [6]) [%]	pest or weed control at 250 g/ha [2, 7] [%]	pest or weed control at 250 g/ha [2, 8] [%]	pest or weed control at 250 g/ha (Lolium perenne (LOLPE); [9]) [%]	pest or weed control at 250 g/ha (Lolium perenne (LOLPE); [10]) [%]	pest or weed control at 63 g/ha [1, 3] [%]	pest or weed control at 63 g/ha [1, 4] [%]	pest or weed control at 63 g/ha (Avena fatua (AVEFA); [5]) [%]	pest or weed control at 63 g/ha (Avena fatua (AVEFA); [6]) [%]	pest or weed control at 63 g/ha [2, 7] [%]	pest or weed control at 63 g/ha [2, 8] [%]	pest or weed control at 63 g/ha (Lolium perenne (LOLPE); [9]) [%]	pest or weed control at 63 g/ha (Lolium perenne (LOLPE); [10]) [%]
CONC(=O)CC1CC(=O)C(c2c(C)cc(C)cc2C)C1=O (centres unmarked) [Compound B96]	20	0	60	0	90	30	80	80								
Cc1cc(C)c(C2C(=O)CC(CC(=O)NC3CC3C(F)(F)F)C2=O)c(C)c1 (centres unmarked) [Compound B97]	70	80	50	0	80	90	70	80								
Cc1cc(C)c(C2C(=O)CC(CC(=O)NC3CC3(F)F)C2=O)c(C)c1 (centres unmarked) [Compound B98]	60	60	20	0	60	80	80	90								
Cc1cc(-c2cc(C#N)c(F)cn2)cc(C)c1C1C(=O)CC(CC(=O)NC(C)(C)C)C1=O (centres unmarked) [Compound B99]	70	70	20	30	80	70	80	80								
Cc1cc(-c2ncc(F)cc2F)cc(C)c1C1C(=O)CC(CC(=O)NCc2ccc(Br)cc2)C1=O (centres unmarked) [Compound B100]	100	80	100	60	100	100	100	90								
Cc1cc(-c2ncc(F)cc2F)cc(C)c1C1C(=O)CC(CC(=O)N2CCOCC2)C1=O (centres unmarked) [Compound B101]	90	90	90	70	100	100	100	100								
C=C(Br)CNC(=O)CC1CC(=O)C(c2c(C)cc(C)cc2C)C1=O (centres unmarked) [Compound B102]	60	60	60	0	60	80	90	100								
CCNC(=O)CC1CC(=O)C(c2c(C)cc(-c3ncc(Cl)cc3F)cc2C)C1=O (centres unmarked) [Compound B103]	100	100	100	90	100	100	100	100								
Cc1cc(-n2ncc(Cl)c2C)cc(C)c1C1C(=O)CC(CC(=O)NC(C)(C)C)C1=O (centres unmarked) [Compound B104]	80	40	80	10	70	20	70	10								
Cc1cc(-n2cc(Cl)c(C)n2)cc(C)c1C1C(=O)CC(CC(=O)NC(C)(C)C)C1=O (centres unmarked) [Compound B105]	70	70	60	20	100	100	60	70								
COCCCNC(=O)CC1CC(=O)C(c2c(C)cc(-c3ncc(F)cn3)cc2C)C1=O (centres unmarked) [Compound B106]	100	80	100	70	100	100	100	90								
Cc1cc(-c2ncc(F)cn2)cc(C)c1C1C(=O)CC(CC(N)=O)C1=O (centres unmarked) [Compound B107]	80	60	90	10	80	60	80	20								
C=CCNC(=O)CC1CC(=O)C(c2c(C)cc(-c3ncc(F)cn3)cc2C)C1=O (centres unmarked) [Compound B108]	100	100	100	90	100	100	100	90								
Cc1cc(-c2ncc(F)cn2)cc(C)c1C1C(=O)CC(CC(=O)NCC(C)(C)C)C1=O (centres unmarked) [Compound B109]									20	70	80	100	90	80	70	60
C#CCN(CC#C)C(=O)CC1CC(=O)C(c2c(C)cc(-c3ncc(F)cn3)cc2C)C1=O (centres unmarked) [Compound B110]	100	90	100	80	100	100	90	80								
CCCCNC(=O)CC1CC(=O)C(c2c(C)cc(-c3ncc(F)cn3)cc2C)C1=O (centres unmarked) [Compound B111]	100	70	100	90	100	100	100	100								
Cc1cc(-c2ncc(F)cn2)cc(C)c1C1C(=O)CC(CC(=O)NCC(C)C)C1=O (centres unmarked) [Compound B112]	100	100	100	100	100	100	100	100								
C#CC(C)(C)NC(=O)CC1CC(=O)C(c2c(C)cc(-c3ncc(F)cn3)cc2C)C1=O (centres unmarked) [Compound B113]	100	90	100	90	100	100	100	90								
Cc1cc(-c2ncc(F)cn2)cc(C)c1C1C(=O)CC(CC(=O)NC2CCCC2)C1=O (centres unmarked) [Compound B114]	90	90	90	60	100	100	90	90								
